According to ChEMBL document CHEMBL1201862, “PubChem BioAssay data set” (2004):
The source made the active and inactive calls.

Experiments:
[1] = biological target: Envelope glycoprotein gp160 (Human immunodeficiency virus 1, UniProt Q6QLK5); experiment: cell-free HIV fusion peptide-binding blockers – biochemical, uHTS, fluorescence dequenching, […] (AID 1986)
Streptokinase A = biological target: T1, Streptokinase A (Streptococcus pyogenes serotype M1, UniProt P10520); experiment: viability-normalized secreted streptokinase activity reduction – plasminogen activation absorbance, OD405, dose response (AID 1914); assay type: functional, Streptococcus pyogenes M1 GAS;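 further: secreted streptokinase activity via plasminogen activation per viability signal from cell pellet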
T1 sequence (P10520 whole entry): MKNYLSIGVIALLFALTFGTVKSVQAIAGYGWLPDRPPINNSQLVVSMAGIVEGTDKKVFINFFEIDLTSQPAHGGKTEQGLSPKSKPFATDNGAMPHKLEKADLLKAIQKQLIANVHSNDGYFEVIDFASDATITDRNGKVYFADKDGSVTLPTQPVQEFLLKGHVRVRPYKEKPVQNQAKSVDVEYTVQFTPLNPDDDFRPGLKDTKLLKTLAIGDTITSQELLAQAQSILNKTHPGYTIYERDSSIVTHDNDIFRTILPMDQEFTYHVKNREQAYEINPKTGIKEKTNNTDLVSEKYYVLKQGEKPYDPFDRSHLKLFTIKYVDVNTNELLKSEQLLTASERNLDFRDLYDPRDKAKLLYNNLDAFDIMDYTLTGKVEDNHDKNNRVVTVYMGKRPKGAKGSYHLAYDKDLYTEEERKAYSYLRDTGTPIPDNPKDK

[2] = biological target: T2, Calpain-2 catalytic subunit (Sus scrofa, UniProt P43367); experiment: m-calpain protease blockers, concentration series – biochemical, fluorogenic peptide substrate, dose response (AID 1420); assay type: functional
T2 sequence (P43367 whole entry): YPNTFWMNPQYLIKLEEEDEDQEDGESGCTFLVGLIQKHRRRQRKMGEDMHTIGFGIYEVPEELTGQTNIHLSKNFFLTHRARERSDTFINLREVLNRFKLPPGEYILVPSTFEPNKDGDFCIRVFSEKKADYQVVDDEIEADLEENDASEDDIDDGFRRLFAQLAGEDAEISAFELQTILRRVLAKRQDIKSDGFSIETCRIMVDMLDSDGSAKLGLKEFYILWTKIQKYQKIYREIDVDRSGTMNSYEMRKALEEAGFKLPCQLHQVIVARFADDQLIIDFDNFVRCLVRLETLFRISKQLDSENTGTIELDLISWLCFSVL

[3] = system: Streptococcus sp. 'group A'; experiment: Streptococcus pyogenes SK(-)GAS viability under kanamycin – luminescence, BacTiterGlo, confirmation, counter-screen for streptokinase expression inhibitor project, dose response (AID 1900); assay type: functional, organism-based
Fatty acid synthase [4] = biological target: T3, Fatty acid synthase (Homo sapiens, UniProt P49327); experiment: inhibition of human FAS-TE enzyme activity – biochemical, kinetic fluorescence intensity, dose response (AID 624326); assay type: functional;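 further: rate of fluorescence rise from hydrolysis of a fluorogenic O-methyl fluorescein ester substrate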
T3 sequence (P49327 whole entry): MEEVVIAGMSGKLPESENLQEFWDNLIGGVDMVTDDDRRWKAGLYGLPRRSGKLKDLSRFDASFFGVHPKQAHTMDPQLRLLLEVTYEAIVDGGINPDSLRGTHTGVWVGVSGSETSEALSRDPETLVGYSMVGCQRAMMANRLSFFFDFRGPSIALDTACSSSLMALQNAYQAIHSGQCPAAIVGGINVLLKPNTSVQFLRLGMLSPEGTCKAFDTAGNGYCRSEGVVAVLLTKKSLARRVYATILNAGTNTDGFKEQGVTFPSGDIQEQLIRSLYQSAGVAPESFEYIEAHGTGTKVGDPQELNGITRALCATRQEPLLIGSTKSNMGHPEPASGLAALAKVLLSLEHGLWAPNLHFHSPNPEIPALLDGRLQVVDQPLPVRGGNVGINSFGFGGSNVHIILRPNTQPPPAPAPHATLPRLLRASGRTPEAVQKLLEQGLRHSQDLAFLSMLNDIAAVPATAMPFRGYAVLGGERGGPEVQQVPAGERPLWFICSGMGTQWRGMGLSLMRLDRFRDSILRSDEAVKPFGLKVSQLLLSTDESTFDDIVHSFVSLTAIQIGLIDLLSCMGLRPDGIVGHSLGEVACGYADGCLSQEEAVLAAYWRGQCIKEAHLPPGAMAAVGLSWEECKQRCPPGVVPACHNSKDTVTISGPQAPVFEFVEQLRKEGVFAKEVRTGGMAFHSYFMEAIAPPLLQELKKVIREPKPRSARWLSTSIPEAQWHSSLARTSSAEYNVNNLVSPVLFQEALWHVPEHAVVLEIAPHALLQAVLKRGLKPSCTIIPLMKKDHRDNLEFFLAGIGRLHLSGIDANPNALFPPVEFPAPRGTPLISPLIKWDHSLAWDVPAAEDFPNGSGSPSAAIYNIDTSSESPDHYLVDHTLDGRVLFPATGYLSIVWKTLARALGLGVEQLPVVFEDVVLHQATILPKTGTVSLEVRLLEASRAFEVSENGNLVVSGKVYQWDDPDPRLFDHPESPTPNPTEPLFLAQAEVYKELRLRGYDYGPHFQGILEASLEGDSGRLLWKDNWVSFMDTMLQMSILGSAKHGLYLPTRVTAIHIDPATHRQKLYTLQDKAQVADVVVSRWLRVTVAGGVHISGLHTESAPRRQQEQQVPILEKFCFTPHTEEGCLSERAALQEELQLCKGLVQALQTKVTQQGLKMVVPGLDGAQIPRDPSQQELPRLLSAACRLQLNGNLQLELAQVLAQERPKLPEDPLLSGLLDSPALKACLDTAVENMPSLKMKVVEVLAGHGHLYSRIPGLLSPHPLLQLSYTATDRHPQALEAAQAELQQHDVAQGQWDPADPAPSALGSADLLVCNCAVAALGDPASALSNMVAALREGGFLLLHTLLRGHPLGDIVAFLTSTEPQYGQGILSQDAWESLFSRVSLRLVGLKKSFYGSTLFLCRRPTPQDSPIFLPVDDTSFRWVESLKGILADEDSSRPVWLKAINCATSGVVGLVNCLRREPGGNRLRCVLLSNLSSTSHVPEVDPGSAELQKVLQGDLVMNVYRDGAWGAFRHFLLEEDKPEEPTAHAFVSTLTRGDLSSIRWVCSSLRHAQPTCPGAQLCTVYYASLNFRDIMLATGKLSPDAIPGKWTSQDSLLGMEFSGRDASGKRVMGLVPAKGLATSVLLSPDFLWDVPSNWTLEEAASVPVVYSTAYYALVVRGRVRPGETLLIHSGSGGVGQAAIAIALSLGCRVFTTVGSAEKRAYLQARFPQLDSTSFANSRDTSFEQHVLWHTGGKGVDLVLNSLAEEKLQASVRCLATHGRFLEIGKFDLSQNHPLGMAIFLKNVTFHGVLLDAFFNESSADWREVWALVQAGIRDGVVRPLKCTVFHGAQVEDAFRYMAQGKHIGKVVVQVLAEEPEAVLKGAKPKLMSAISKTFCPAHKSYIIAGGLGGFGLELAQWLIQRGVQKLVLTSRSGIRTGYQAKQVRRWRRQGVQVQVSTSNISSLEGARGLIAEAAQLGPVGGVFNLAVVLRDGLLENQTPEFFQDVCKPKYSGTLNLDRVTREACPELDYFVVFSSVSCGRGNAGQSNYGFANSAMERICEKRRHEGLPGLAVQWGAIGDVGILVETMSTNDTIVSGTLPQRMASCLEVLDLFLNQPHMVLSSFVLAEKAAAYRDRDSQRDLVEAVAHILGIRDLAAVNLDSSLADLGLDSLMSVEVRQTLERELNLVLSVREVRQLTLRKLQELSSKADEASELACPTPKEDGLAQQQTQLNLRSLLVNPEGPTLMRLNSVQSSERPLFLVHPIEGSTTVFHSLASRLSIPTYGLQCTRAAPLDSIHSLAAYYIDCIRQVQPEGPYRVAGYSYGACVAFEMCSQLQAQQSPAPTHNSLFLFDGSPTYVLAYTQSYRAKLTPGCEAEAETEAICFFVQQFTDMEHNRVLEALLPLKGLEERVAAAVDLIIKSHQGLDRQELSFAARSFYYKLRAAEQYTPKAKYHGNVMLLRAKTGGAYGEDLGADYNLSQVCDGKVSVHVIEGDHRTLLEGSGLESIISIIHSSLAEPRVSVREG

Streptococcus = experiment: GAS UMAA2166 growth inhibition – luminescence, BacTiterGlo, counter-screen for streptokinase expression inhibitor project, dose response (AID 1915); assay type: functional, organism-based;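 further: potency for reduction of bacterial viability or growth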
Aminopeptidase N = biological target: T4, Aminopeptidase N (Plasmodium falciparum FcB1/Columbia, UniProt O96935); experiment: malaria alanyl aminopeptidase activity blockers – biochemical, fluorogenic H-Leu-NHMec substrate, 1536-well (AID 1445); design: species or system Plasmodium falciparum 3D7, 3D7
T4 sequence (O96935 whole entry): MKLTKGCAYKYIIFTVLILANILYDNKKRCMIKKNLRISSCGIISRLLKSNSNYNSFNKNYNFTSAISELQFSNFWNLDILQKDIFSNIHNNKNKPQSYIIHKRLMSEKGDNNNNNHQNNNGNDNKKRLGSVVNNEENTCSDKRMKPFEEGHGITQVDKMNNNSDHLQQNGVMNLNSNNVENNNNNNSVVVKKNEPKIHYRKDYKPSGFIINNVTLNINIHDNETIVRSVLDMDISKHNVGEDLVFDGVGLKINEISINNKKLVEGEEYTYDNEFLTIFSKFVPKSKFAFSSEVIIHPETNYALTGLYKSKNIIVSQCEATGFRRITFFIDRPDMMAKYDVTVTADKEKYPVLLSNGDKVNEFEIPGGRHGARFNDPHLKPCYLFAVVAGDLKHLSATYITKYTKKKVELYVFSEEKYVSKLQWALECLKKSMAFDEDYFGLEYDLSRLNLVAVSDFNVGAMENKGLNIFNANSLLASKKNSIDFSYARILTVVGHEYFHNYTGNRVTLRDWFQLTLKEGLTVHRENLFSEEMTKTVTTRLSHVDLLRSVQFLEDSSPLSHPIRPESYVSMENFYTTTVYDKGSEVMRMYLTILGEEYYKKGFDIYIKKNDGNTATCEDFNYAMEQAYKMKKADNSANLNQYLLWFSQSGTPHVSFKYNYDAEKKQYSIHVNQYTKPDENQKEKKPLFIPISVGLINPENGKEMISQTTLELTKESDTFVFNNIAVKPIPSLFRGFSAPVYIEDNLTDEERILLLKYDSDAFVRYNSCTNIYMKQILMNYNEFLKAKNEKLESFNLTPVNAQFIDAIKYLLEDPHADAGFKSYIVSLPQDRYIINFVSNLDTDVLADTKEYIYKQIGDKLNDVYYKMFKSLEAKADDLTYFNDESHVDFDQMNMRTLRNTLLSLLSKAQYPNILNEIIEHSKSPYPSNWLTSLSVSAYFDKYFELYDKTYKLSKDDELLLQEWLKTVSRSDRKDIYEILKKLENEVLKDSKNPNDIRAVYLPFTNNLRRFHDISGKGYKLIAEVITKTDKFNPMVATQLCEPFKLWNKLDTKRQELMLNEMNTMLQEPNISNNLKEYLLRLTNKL

[5] = biological target: Bifunctional protein GlmU (Mycobacterium tuberculosis, UniProt P9WMN3); experiment: Inhibitors of Mycobacterial Glucosamine-1-phosphate acetyl transferase (GlmU). Secondary screen.; design: species or system Mycobacterium tuberculosis H37Rv
Chain of Bifunctional protein GlmU (P9WMN3 whole entry): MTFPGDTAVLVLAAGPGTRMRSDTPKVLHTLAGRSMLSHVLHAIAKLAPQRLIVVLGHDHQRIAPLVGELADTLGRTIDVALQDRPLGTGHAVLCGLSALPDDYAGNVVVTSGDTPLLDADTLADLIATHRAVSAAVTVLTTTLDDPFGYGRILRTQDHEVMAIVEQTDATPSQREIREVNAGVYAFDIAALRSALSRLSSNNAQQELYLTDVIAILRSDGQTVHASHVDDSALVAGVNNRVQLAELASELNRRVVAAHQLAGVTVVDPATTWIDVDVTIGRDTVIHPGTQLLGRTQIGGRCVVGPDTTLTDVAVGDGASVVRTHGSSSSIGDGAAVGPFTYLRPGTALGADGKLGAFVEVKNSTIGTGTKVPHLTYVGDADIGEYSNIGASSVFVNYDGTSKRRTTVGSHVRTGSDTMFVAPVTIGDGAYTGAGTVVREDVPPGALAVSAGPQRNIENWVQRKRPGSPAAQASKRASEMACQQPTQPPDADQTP

Fatty acid synthase [6] = biological target: T3, Fatty acid synthase; experiment: inhibition of human FAS-TE enzyme activity – biochemical, endpoint fluorescence intensity, uHTS hits, dose response (AID 624327); assay type: functional;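 further: fluorescence from hydrolysis of an O-methyl fluorescein acyl ester substrate by the enzyme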
[7] = biological target: T5, Short transient receptor potential channel 4 (Mus musculus, UniProt Q9QUQ5); experiment: potentiation of DAMGO-evoked TRPC4 calcium signal – cell-based, HEK293 TRPC4/mu-opioid, Fluo-4 calcium, EC20 DAMGO, dose response (AID 434941); assay type: functional
T5 sequence (Q9QUQ5 whole entry): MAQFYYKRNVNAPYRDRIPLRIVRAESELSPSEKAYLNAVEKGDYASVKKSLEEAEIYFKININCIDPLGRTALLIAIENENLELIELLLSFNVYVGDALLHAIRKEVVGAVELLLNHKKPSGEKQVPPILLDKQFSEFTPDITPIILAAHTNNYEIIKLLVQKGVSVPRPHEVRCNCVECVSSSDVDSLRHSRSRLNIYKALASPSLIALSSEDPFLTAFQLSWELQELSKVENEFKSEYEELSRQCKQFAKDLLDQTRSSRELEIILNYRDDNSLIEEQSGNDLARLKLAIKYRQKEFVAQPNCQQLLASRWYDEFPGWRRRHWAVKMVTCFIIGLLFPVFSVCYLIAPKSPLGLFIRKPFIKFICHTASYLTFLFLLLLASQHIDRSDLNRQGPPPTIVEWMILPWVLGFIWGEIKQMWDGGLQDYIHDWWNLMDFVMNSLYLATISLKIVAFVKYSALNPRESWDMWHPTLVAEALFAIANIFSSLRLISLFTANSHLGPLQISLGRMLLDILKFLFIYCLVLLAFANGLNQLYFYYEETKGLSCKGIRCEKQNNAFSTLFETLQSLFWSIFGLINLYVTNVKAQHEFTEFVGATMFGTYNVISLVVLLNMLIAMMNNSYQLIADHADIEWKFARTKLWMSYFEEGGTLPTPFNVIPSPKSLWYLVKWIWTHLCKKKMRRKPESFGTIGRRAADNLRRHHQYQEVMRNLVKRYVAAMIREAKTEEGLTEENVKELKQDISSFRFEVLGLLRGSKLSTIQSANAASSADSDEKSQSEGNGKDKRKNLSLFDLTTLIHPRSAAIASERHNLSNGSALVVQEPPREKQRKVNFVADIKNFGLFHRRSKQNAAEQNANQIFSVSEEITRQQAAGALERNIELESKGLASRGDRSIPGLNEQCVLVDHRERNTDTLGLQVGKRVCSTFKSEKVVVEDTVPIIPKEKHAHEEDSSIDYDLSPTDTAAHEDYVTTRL

Vero [8] = experiment: inhibition of WNV-induced cytopathic effect – cell-based, CPE readout (AID 1621); assay type: functional; conditions: Chlorocebus sabaeus
Vero [9] = experiment: host cell viability loss, Vero E6 – synthesized analogs, cytotoxicity control for West Nile virus antiviral project, SAR follow-up (AID 2244); assay type: functional; conditions: Chlorocebus sabaeus
[10] = Luminescence Cell-Based Dose Retest to Confirm Inhibitors of Cancer Stem Cells. [Related pubchem assays (depositor defined):AID2717, AID2721]; assay type: functional; conditions: Homo sapiens
Vero [11] = experiment: antiviral protection of cells from WNV – synthesized analogs, SAR follow-up (AID 2238); assay type: functional, cell-based; conditions: Chlorocebus sabaeus
Hexokinase = Hexokinase (Trypanosoma brucei, UniProt Q38C41); experiment: Confirmation assay for inhibitors of Trypanosoma brucei hexokinase 1-Analogue-first series. [Related pubchem assays (depositor defined):AID1430, AID1632, AID2516, AID2560, AID2579, AID2600, AID449725, AID492951]; assay type: functional
Chain of Hexokinase (Q38C41 whole entry): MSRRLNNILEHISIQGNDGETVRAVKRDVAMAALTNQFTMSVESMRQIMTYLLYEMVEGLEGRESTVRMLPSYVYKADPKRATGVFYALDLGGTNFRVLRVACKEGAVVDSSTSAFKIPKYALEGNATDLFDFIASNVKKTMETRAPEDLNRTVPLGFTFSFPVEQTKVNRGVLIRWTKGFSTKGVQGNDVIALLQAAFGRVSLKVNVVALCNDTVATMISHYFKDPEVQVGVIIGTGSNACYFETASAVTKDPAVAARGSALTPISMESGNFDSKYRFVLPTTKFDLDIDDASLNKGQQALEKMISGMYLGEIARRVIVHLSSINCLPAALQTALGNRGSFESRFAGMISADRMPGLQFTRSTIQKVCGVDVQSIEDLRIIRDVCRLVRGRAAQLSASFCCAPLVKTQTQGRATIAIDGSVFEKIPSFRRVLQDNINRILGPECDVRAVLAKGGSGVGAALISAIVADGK

Hexokinase HKDC1 = biological target: T6, Hexokinase HKDC1 (Homo sapiens, UniProt Q2TB90); experiment: inhibition of HKDC1 glucose phosphorylation – biochemical, W721R variant, dose response (AID 504729); assay type: functional
T6 sequence (Q2TB90 whole entry): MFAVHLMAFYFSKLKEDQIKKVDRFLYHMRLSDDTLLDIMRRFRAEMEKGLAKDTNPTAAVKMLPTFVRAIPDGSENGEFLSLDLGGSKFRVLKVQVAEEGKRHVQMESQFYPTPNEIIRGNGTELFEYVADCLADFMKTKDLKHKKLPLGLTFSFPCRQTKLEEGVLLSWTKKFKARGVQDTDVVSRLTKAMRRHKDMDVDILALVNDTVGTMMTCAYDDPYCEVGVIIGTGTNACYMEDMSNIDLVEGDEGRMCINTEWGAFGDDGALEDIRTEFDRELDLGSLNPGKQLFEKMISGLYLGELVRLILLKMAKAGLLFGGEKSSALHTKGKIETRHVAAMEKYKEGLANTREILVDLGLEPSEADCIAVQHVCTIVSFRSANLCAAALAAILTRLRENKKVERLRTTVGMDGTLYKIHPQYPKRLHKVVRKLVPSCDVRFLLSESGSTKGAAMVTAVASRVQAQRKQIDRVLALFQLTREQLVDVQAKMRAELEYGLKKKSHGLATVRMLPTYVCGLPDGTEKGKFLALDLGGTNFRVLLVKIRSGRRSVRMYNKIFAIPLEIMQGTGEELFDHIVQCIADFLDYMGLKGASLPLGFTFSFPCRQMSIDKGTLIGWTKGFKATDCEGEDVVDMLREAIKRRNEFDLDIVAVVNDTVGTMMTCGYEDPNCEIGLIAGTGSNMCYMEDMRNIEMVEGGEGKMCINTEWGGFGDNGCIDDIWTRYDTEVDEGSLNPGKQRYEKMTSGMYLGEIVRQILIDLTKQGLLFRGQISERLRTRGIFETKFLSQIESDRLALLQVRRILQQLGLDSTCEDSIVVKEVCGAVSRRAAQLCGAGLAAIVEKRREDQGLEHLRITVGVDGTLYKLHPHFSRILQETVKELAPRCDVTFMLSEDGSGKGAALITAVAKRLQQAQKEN

Hexokinase-1 = Hexokinase-1 (Homo sapiens, UniProt P19367); experiment: HK1 enzyme activation by HKDC1 hits – biochemical, selectivity assay for HKDC1 activator project, dose response (AID 504762); assay type: functional
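Wherever AC50 is given: cells exposed to compound for roughly 70 hours or longer before luminescence read.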

Chain of Envelope glycoprotein gp160 (Q6QLK5 whole entry, the tested form may be a part): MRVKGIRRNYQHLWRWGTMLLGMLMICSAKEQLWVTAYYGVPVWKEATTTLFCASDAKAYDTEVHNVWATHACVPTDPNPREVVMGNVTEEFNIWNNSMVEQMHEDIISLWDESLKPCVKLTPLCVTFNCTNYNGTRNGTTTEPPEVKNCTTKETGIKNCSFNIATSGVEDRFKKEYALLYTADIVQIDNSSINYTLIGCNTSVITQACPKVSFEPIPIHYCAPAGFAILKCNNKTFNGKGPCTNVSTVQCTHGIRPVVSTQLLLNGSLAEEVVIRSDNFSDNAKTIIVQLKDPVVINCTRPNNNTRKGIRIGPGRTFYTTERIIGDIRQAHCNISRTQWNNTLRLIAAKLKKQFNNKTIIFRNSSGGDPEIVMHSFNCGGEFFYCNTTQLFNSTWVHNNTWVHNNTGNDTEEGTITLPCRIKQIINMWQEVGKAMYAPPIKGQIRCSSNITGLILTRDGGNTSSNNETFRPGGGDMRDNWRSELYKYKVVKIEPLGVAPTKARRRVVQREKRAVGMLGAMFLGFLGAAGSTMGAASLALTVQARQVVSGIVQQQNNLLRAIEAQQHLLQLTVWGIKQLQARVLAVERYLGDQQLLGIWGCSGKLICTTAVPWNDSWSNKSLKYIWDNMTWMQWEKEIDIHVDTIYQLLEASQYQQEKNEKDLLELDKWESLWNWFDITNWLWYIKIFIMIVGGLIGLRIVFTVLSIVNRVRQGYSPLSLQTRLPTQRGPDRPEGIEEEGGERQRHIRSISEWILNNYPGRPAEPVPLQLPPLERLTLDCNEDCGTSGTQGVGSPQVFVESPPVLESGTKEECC

O=c1c(C(c2ccc([N+](=O)[O-])cc2)c2c(O)oc3ccccc3c2=O)c(O)oc2ccccc12
IC50 [1]: 13.8 µM (active)
EC50 (Streptokinase A): 13.4 µM (active)
IC50 [2]: 7.83 µM (active)
EC50 [3]: 8.09 µM (active)
IC50 (Fatty acid synthase [4]): 3.67 µM (active)
EC50 (Streptococcus): 102 µM (active)
IC50 (Aminopeptidase N): 34 µM (active)
IC50 [5]: 122 µM (active)
IC50 (Fatty acid synthase [6]): 4.65 µM (active)

CN(C)CCOc1cc(Cl)cc(Cl)c1
EC50 [7]: 670 nM (active)

CCN(CC)CCCN=C(S)N1CCN(c2nc(-c3ccccc3)cs2)CC1
IC50 (Vero [8]): > 100 µM (active)
CC50 (Vero [9]): 15.3 µM (active)
AC50 [10]: 3.77 µM (active)
IC50 (Vero [11]): 17.3 µM (active)

CC(C)c1ccc(C(=O)Nc2cc(Cl)ccc2C(=O)O)cc1
IC50 (Hexokinase): 2.89 µM (active)

O=C(CN(C(=O)CCC(=O)Nc1ccccn1)c1ccc2c(c1)OCO2)NCc1ccc(F)cc1
IC50 (Hexokinase HKDC1): > 80 µM (inactive)
EC50 (Hexokinase-1): > 80 µM (inactive)
